Results from EP3705117A1, “MELATONIN HAVING IMPROVED WATER SOLUBILITY, ITS PREPARATION AND USES THEREOF” (Tradichem Industrial Services, S.L., priority 2019, dated 2020).

Assay type: physicochemical
Conditions: for melatonin available in the solution / solubilized: 7 min, 0.2 mg/mL
Experimental: The water solubility of non-compacted melatonin (starting material used for compaction in Example 1) and the solubility of the compacted melatonin prepared in Example 1 were compared.
Three samples of 10 mg each of non-compacted melatonin and three samples of 10 mg each of compacted melatonin were introduced in separate beakers and tap water at 22 °C was added to each beaker to a volume of 10, 25 or 50 ml (assays A, B and C, respectively). Each tested mixture was sonicated for 5 minutes and subsequently subjected to magnetic stirring at 200 rpm for 2 more minutes.

Row | Solubility test, assay A (10 mg / 10 ml) | Solubility test, assay B (10 mg / 25 ml) | melatonin available in the solution / solubilized [%] | dissolution rate compared with non-compacted melatonin (ocular inspection, in each of assays A, B and C (10 mg in 10, 25 or 50 ml water)) | melatonin remained as solid, not dissolved (HPLC analysis, assay C, 10 mg in 50 ml tap water at 22 °C) [%] | Structure (SMILES)
1 | (partially dissolved) | (partially dissolved) | 100 | higher dissolution rate |  | COc1ccc2[nH]cc(CCNC(C)=O)c2c1 [Compacted-melatonin, N-[2-(5-methoxy-1H-indol-3-yl)ethyl)acetamide]
2 | (partially dissolved) | (partially dissolved) | 79 |  | 21 | COc1ccc2[nH]cc(CCNC(C)=O)c2c1 [Non-compacted melatonin, N-[2-(5-methoxy-1H-indol-3-yl)ethyl)acetamide]
